Measurements taken from patent US20250221966A1, “RXFP1 AGONISTS” (BRISTOL-MYERS SQUIBB COMPANY, priority 2021, published 2025).
pEC50: −log10 of the molar value. Like-named read-outs stand apart in the source and are kept apart here.

Biological target: T1, human RXFP1 (Homo sapiens, UniProt Q9HBX9)
T1 construct: expressed in transfected cells
T1 sequence (Q9HBX9 1-757): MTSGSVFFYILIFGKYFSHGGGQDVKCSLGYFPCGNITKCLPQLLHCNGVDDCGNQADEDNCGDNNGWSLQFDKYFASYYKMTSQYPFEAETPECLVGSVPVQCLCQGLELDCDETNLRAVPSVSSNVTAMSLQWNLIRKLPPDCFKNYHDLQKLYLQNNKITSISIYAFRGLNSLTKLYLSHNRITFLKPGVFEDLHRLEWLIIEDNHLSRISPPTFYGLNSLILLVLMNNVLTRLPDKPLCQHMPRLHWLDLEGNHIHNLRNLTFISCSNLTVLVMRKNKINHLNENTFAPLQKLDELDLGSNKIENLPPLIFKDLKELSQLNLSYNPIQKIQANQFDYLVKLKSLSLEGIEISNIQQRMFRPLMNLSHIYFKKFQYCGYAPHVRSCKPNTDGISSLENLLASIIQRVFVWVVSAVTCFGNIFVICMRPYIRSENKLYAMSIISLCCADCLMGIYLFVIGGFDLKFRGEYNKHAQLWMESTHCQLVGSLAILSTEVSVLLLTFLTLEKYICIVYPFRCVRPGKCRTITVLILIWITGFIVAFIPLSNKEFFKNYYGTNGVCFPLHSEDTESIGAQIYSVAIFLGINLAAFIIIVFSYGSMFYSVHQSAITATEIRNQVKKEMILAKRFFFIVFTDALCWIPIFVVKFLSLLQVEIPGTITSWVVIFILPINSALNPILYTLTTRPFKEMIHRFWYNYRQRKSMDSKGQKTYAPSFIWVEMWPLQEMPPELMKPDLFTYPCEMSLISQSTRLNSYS
Assay: RXFP1 cAMP assay (hRXFP1 HEK293 cAMP assay, HTRF)
Format: cell-based
How it was run: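 HEK293 cells stably expressing human RXFP1 (1500 cells/well) in HBSS/20 mM HEPES/0.05% BSA/0.5 mM IBMX. Compounds were tested at 0.010 nM–50 μM final (2% DMSO) for 30 min at room temperature. cAMP was measured by HTRF and values derived by 4-parameter logistic fit.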

[1] = HEK293 cells stably expressing human RXFP1, 30 min at room temperature, read-out: cAMP hRXFP1 HEK293 Assay EC50
[2] = cAMP hRXFP1 HEK293 Assay EC50, HEK293 cells stably expressing human RXFP1, 30 min at room temperature

| Structure (SMILES) | pEC50 [1] | pEC50 [2] |
| --- | --- | --- |
| COc1ccc(-c2ccc(C(=O)O)cc2F)cc1C(=O)N[C@@H]1C2CCC(/C2=C/c2ccccc2)[C@@H]1C(=O)Nc1ccc(F)c(C(F)(F)F)c1 (stereo partly drawn) [compound 169] | 7.36 |  |
| COc1ccc(C2=NOC(C(C)O)C2)cc1C(=O)N[C@H]1[C@@H](C(=O)Nc2ccc(F)c(C(F)(F)F)c2)[C@H]2CC[C@@H]1/C2=C\C1CC1 (single isomer, unassigned) [compound 595] | 7.03 |  |
| COc1ccc(C2=NOC3COCC23)cc1C(=O)N[C@H]1[C@@H](C(=O)NC2(Cc3ccccc3)CC2)[C@H]2CC[C@@H]1/C2=C\C1CC1 (stereo partly drawn) [compound 653] | 6.54 |  |
| COc1ccc(-c2cc(C3=NOC4CC(O)CC34)ccc2F)cc1C(=O)N[C@H]1[C@@H](C(=O)Nc2ccc(F)c(C(F)(F)F)c2)[C@H]2CC[C@@H]1/C2=C\C1CC1 (stereo partly drawn) [compound 909] | 8.40 |  |
| O=C(N[C@H]1[C@@H](C(=O)Nc2ccc(F)c(C(F)(F)F)c2)[C@H]2CC[C@@H]1/C2=C\C1CC1)c1cc(C2=NOC3CC(CO)CC23)ccc1F (single isomer, unassigned) [compound 723] | 5.30 |  |
| CC=C1C2CCC1[C@H](C(=O)Nc1ccc(F)c(C(F)(F)F)c1)[C@@H]2NC(=O)c1cc(F)c(F)cc1OC (stereo partly drawn) [compound 50] | 6.82 |  |
| COc1ccc(-c2cc(C3OC(=O)N(C)C3=O)ccc2F)cc1C(=O)N[C@@H]1C2CCC(/C2=C/C2CC2)[C@@H]1C(=O)Nc1ccc(F)c(C(F)(F)F)c1 (stereo partly drawn) [compound 173] | 8.15 |  |
| COc1ccc(-c2cc(C(=O)OC(C)(C)C)ccc2F)cc1C(=O)N[C@@H]1C2CCC(/C2=C/C(F)(F)F)[C@@H]1C(=O)Nc1ccc(F)c(C(F)(F)F)c1 (stereo partly drawn) [compound 294] | 7.33 |  |
| COC(=O)N1CC=C(c2ccc(OC)c(C(=O)N[C@@H]3C4CCC(C4=C(C)C)[C@@H]3C(=O)Nc3ccc(F)c(C(F)(F)F)c3)c2)CC1 (stereo partly drawn) [compound 143] | 5.55 |  |
| COc1ccc(C2=NOC3CC(C)(CO)CC23)cc1C(=O)N[C@H]1[C@@H](C(=O)Nc2ccc(F)c(C(F)(F)F)c2)[C@H]2CC[C@@H]1/C2=C\C1CC1 (stereo partly drawn) [compound 735] | 8.89 |  |
| COc1ccc(-c2cc([C@H](OC(=O)NC3CCC3)C(F)(F)F)ccc2F)cc1C(=O)N[C@H]1[C@@H](C(=O)N[C@H](C)C2(C)CC2)[C@H]2CC[C@@H]1/C2=C\C1CC(F)(F)C1 [compound 967] | 8.68 |  |
| COc1ccc(-c2ccnc(N3CCOCC3)c2F)cc1C(=O)N[C@@H]1C2CCC(/C2=C/C2CC2)[C@@H]1C(=O)Nc1ccc(F)c(C(F)(F)F)c1 (stereo partly drawn) [compound 274] | 7.80 |  |
| COc1ccc(C2CC3CN(C(=O)OC(C)(C)C)CC32)cc1C(=O)N[C@H]1[C@@H](C(=O)Nc2ccc(F)c(C(F)(F)F)c2)[C@H]2CC[C@@H]1/C2=C\C1CC1 (single isomer, unassigned) [compound 730] | 6.58 |  |
| COc1ccc(-c2cccc3c2CN(C(=O)C2CCC2)C3)cc1C(=O)N[C@@H]1C2CCC(/C2=C/C2CC2)[C@@H]1C(=O)Nc1ccc(F)c(C(F)(F)F)c1 (stereo partly drawn) [compound 872] | 8.10 |  |
| COc1ccc(-c2cc(NC(=O)CC(=O)O)ccc2F)cc1C(=O)N[C@@H]1C2CCC(/C2=C/c2cnoc2)[C@@H]1C(=O)Nc1ccc(F)c(C(F)(F)F)c1 (stereo partly drawn) [compound 175] | 7.77 |  |
| COc1ccc(N2CCC(NC(=O)OC(C)(C)C)C2)cc1C(=O)N[C@@H]1C2CCC(/C2=C/C(F)(F)F)[C@@H]1C(=O)Nc1ccc(F)c(C(F)(F)F)c1 (stereo partly drawn) [compound 334] | 5.86 |  |
| COc1ccc(-c2cc(C(=O)O)ccc2F)cc1C(=O)N[C@@H]1C2CCC(/C2=C/C2CC2)[C@@H]1C(=O)NCc1cccc(C(F)(F)F)c1 (stereo partly drawn) [compound 264] | 5.50 |  |
| COc1ccc(C2=NOC3CC(OC)CC23)cc1C(=O)N[C@@H]1C2CCC(/C2=C/C2CC2)[C@@H]1C(=O)Nc1ccc(F)c(C(F)(F)F)c1 (stereo partly drawn) [compound 867] | 8.43 |  |
| COCCOc1ccc(C2=NOC3COCC23)cc1C(=O)N[C@H]1[C@@H](C(=O)Nc2ccc(F)c(C(F)(F)F)c2)[C@H]2CC[C@@H]1/C2=C\C1CC1 (single isomer, unassigned) [Example 452] | 8.74 |  |
| COc1c(F)cc(C2=NOC3CC(C(C)O)CC23)cc1C(=O)N[C@H]1[C@@H](C(=O)Nc2ccc(F)c(C(F)(F)F)c2)[C@H]2CC[C@@H]1/C2=C\C1CC1 (stereo partly drawn) [compound 850] | 8.57 |  |
| COc1c(F)cc(C2=NOC3CC(O)(C(F)(F)F)CC23)cc1C(=O)N[C@H]1[C@@H](C(=O)N[C@H](C)C2(C)CC2)[C@H]2CC[C@@H]1/C2=C\c1cnc(C(F)(F)F)s1 (stereo partly drawn) [compound 917] | 8.89 |  |

| Structure (SMILES) | pEC50 [1] | pEC50 [2] |
| --- | --- | --- |
| O=C(N[C@H]1[C@@H](C(=O)Nc2ccc(F)c(C(F)(F)F)c2)[C@H]2CC[C@@H]1/C2=C\C1CC1)c1cc(C2=NOC3CC(CO)CC23)ccc1OCC(F)F (stereo partly drawn) [compound 781] | 8.57 |  |
| COc1cc(F)c(F)cc1C(=O)N[C@@H]1C2CCC(/C2=C/c2cccc(C#N)c2)[C@@H]1C(=O)Nc1ccc(F)c(C(F)(F)F)c1 (stereo partly drawn) [compound 59] | 6.05 |  |
| COc1c(F)cc(C2=NOC3CC(CO)CC23)cc1C(=O)N[C@H]1[C@@H](C(=O)Nc2ccc(F)c(C(F)(F)F)c2)[C@H]2CC[C@@H]1/C2=C\C1CC(F)(F)C1 (stereo partly drawn) [compound 918] | 8.26 |  |
| COc1ccc(C2=NOC3COCC23)cc1C(=O)N[C@H]1[C@@H](C(=O)N[C@H](C)c2ccccc2C(F)(F)F)[C@H]2CC[C@@H]1/C2=C\C1CC1 (stereo partly drawn) [compound 510] | 7.82 |  |
| COc1ccc(-c2cc(C(=O)O)ccc2F)cc1C(=O)N[C@H]1[C@@H](C(=O)Nc2ccc(F)c(C(F)(F)F)c2)[C@H]2CC[C@@H]1/C2=C/c1ccccc1 [compound 91] |  | 6.44 |
| COc1ccc(-c2cc(C(NC(=O)C3CCOCC3)C(=O)O)ccc2F)cc1C(=O)N[C@H]1[C@@H](C(=O)Nc2ccc(F)c(C(F)(F)F)c2)[C@H]2CC[C@@H]1/C2=C\CC(C)C (stereo partly drawn) [compound 941] | 8.92 |  |
| O=C(N[C@H]1[C@@H](C(=O)Nc2ccc(F)c(C(F)(F)F)c2)[C@H]2CC[C@@H]1/C2=C\C1CC1)c1cc(C2=NOC3CC(CO)CC23)ccc1OCC(F)F (stereo partly drawn) [compound 783] | 8.47 |  |
| COc1c(F)cc(C2=NOC3CC(CO)CC23)cc1C(=O)N[C@H]1[C@@H](C(=O)N[C@H](C)C2(C)CC2)[C@H]2CC[C@@H]1/C2=C\C1CCCC1 (stereo partly drawn) [compound 811] | 9.22 |  |
| COc1ccc(C2=NOC3COCC23)cc1C(=O)N[C@H]1[C@@H](C(=O)N[C@@H]2CCc3ccccc32)[C@H]2CC[C@@H]1/C2=C\C1CC1 (stereo partly drawn) [compound 577] | 7.15 |  |
| COc1ccc(C2=NOC3COCC23)cc1C(=O)N[C@H]1[C@@H](C(=O)NC2CC=CC2)[C@H]2CC[C@@H]1/C2=C\C1CC1 (stereo partly drawn) [compound 559] | 7.35 |  |
| COc1ccc(-c2cc(C(=O)O)ccc2F)cc1C(=O)N[C@@H]1C2CCC(/C2=C/C2CC2)[C@@H]1C(=O)NC(C)C (stereo partly drawn) [compound 300] | 6.24 |  |
| COc1ccc(-c2ccc(C(=O)N(C)C)cc2F)cc1C(=O)N[C@@H]1C2CCC(/C2=C/c2ccccc2)[C@@H]1C(=O)Nc1ccc(F)c(C(F)(F)F)c1 (stereo partly drawn) [compound 195] | 7.54 |  |
| CCOC(=O)c1coc(-c2ccc(OC)c(C(=O)N[C@@H]3C4CCC(C4=C(C)C)[C@@H]3C(=O)Nc3ccc(F)c(C(F)(F)F)c3)c2)n1 (stereo partly drawn) [Example 110] | 6.10 |  |
| CNC(=O)C(OC(=O)Nc1ccccc1)c1ccc(F)c(-c2ccc(OC)c(C(=O)N[C@@H]3C4CCC(/C4=C/C4CC4)[C@@H]3C(=O)Nc3ccc(F)c(C(F)(F)F)c3)c2)c1 (stereo partly drawn) [compound 237] | 8.70 |  |
| COc1ccc(-c2cccnc2)cc1C(=O)N[C@@H]1C2CCC(/C2=C/C2CC2)[C@@H]1C(=O)Nc1ccc(F)c(C(F)(F)F)c1 (stereo partly drawn) [compound 278] | 7.49 |  |
| COCCCOc1c(F)cc(C2=NOC3COCC23)cc1C(=O)N[C@H]1[C@@H](C(=O)Nc2ccc(F)c(C(F)(F)F)c2)[C@H]2CC[C@@H]1/C2=C\C1CC1 (stereo partly drawn) [compound 778] | 8.96 |  |
| COc1ccc(-c2cc(C(OC(=O)NC3CCC3)C(=O)O)ccc2F)cc1C(=O)N[C@H]1[C@@H](C(=O)Nc2ccc(F)c(C(F)(F)F)c2)[C@H]2CC[C@@H]1/C2=C\C1CCCC1 (stereo partly drawn) [compound 936] | 8.85 |  |
| COc1ccc(-c2cc(C(=O)O)ccc2F)cc1C(=O)N[C@@H]1C2CCC(/C2=C/C2CC2)[C@@H]1C(=O)Nc1ccc(C#N)c(C(F)(F)F)c1 (stereo partly drawn) [compound 270] |  | 7.60 |
| COc1ccc(-c2cc(C(OC(=O)N3CCC3)C(F)(F)F)ccc2F)cc1C(=O)N[C@@H]1C2CCC(/C2=C/C2CC2)[C@@H]1C(=O)Nc1ccc(F)c(C(F)(F)F)c1 (stereo partly drawn) [compound 216] | 8.70 |  |
| COc1cc(F)c(F)cc1C(=O)N[C@@H]1C2CCC(/C2=C/c2cccnc2)[C@@H]1C(=O)Nc1ccc(F)c(C(F)(F)F)c1 (stereo partly drawn) [compound 22] | 6.15 |  |
| COc1ccc(-c2cc(C(F)(F)F)ccc2F)cc1C(=O)N[C@@H]1C2CCC(/C2=C/C2CC2)[C@@H]1C(=O)Nc1ccc(F)c(C(F)(F)F)c1 (stereo partly drawn) [compound 286] | 8.30 |  |
